The values that follow come from ChEMBL document CHEMBL1128757, “Linear peptide ETA antagonists: rational design and practical derivatization of N-terminal amino- and imino-carbonylated tripeptide derivatives” (Bioorg Med Chem Lett, 1995).

pIC50: −log10 of the molar value.

The target in assay [1] is T1, Endothelin-1 receptor (Sus scrofa, UniProt Q29010).
T1 sequence (Q29010 whole entry): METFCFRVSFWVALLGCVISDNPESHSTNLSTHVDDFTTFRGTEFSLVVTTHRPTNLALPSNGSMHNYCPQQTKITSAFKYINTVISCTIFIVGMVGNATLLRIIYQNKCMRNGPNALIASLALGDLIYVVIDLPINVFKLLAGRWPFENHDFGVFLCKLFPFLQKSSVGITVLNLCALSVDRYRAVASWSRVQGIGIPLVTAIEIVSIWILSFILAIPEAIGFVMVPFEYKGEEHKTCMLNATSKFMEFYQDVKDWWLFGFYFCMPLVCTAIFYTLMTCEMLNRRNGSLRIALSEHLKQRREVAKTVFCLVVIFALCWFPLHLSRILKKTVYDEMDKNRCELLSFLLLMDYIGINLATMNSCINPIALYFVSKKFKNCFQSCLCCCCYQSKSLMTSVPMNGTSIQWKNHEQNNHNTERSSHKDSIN
The assay can be described thus: Binding affinity against ETA receptor in porcine aortic smooth muscle membrane was determined.

The target in assay [2] is T1, Endothelin-1 receptor. In words: Binding affinity against ETA receptor in porcine aortic smooth muscle membrane.
Assay [3] concerns the target T1, Endothelin-1 receptor. The assay can be described thus: Binding affinity determined against ETA receptor in porcine aortic smooth muscle membrane.
Assay [4] addresses T1, Endothelin-1 receptor. The assay can be described thus: Antagonistic activity towards ET- l-induced contraction in porcine coronary arteries. Format: functional. Particulars: read-out: pA2 (converted).

As to `CC(C)CC(=O)N[C@@H](CC(C)C)C(=O)N[C@H](Cc1c[nH]c2ccccc12)C(=O)N[C@H](CC(=O)O)C(=O)O`, on Endothelin-1 receptor [1], the pIC50 is 4.60. On the same count and under the same terms, as for `CC(C)C[C@H](NC(=O)[C@H](N)C(C)C)C(=O)N[C@H](Cc1c[nH]c2ccccc12)C(=O)N[C@H](CC(=O)O)C(=O)O`, the figure is 4.49. In the case of `CC(C)C[C@H](NC(=O)OC(C)(C)C)C(=O)NC(Cc1c[nH]c2ccccc12)C(=O)NCCC(=O)O` (single isomer, unassigned), on Endothelin-1 receptor [2], the pIC50 is 6.38. On Endothelin-1 receptor [3], the IC50 max was 0.27 µM. `CC(C)C[C@H](NC(=O)N1CCCCC1)C(=O)NC(Cc1c[nH]c2ccccc12)C(=O)NCCC(=O)O` (single isomer, unassigned) gave an IC50 max at Endothelin-1 receptor [3] of 0.081 µM. Still for that read-out and setting: as for `CC(C)C[C@H](NC(=O)N(CCO)C(C)(C)C)C(=O)NC(Cc1c[nH]c2ccccc12)C(=O)NCCC(=O)O` (single isomer, unassigned), the figure is 0.053 µM. With `CC(C)C[C@H](NC(=O)N1CCCC1)C(=O)NC(Cc1c[nH]c2ccccc12)C(=O)NCCC(=O)O` (single isomer, unassigned), the IC50 max at Endothelin-1 receptor [3] was found to be 0.31 µM. Compound `CC(C)C[C@H](NC(=O)Cc1cccs1)C(=O)NC(Cc1c[nH]c2ccccc12)C(=O)NCCC(=O)O` (single isomer, unassigned) gave a pIC50 on Endothelin-1 receptor [2] of 6.27. On Endothelin-1 receptor [3], the IC50 max amounted to 0.42 µM. Regarding `CC(C)C[C@H](NC(=O)N1CCCCCCCCC1)C(=O)NC(Cc1c[nH]c2ccccc12)C(=O)NCCC(=O)O` (single isomer, unassigned), at Endothelin-1 receptor [3], the IC50 max amounted to 0.055 µM.

In turn, `CC(C)C[C@H](NC(=O)CC(C)(C)C)C(=O)NC(Cc1c[nH]c2ccccc12)C(=O)NCCC(=O)O` (single isomer, unassigned) had a pIC50 at Endothelin-1 receptor [2] of 5.17. On the same count and under the same terms, then `Cc1cccc(NC(=O)N[C@@H](CC(C)C)C(=O)NC(Cc2c[nH]c3ccccc23)C(=O)NCCC(=O)O)c1` (single isomer, unassigned), with 5.68.

The compound `CC(C)C[C@H](NC(=O)N1C(C)CCCC1C)C(=O)NC(Cc1c[nH]c2ccccc12)C(=O)NCCC(=O)O` (single isomer, unassigned) registered an IC50 max at Endothelin-1 receptor [3] of 0.051 µM. `CC(C)C[C@H](NC(=O)NCc1ccccc1)C(=O)NC(Cc1c[nH]c2ccccc12)C(=O)NCCC(=O)O` (single isomer, unassigned): the negative-log IC50 (pIC50) on Endothelin-1 receptor [2] was 5.49. Regarding `CC(C)C[C@H](NC(=O)N1CCC(C)CC1)C(=O)NC(Cc1c[nH]c2ccccc12)C(=O)NCCC(=O)O` (single isomer, unassigned), on Endothelin-1 receptor [3], the IC50 max is 0.58 µM. `CC(C)CC(=O)N[C@@H](CC(C)C)C(=O)NC(Cc1c[nH]c2ccccc12)C(=O)NCCC(=O)O` (single isomer, unassigned) showed a pIC50 at Endothelin-1 receptor [1] of 5.41. On to `CC(C)C[C@H](NC(=O)CC1CCCC1)C(=O)NC(Cc1c[nH]c2ccccc12)C(=O)NCCC(=O)O` (single isomer, unassigned), for which, on Endothelin-1 receptor [2], the pIC50 is 6.01. This compound also had an IC50 max at Endothelin-1 receptor [3] of 0.62 µM.

`CC(C)C[C@H](NC(=O)NC(C)(C)C)C(=O)NC(Cc1c[nH]c2ccccc12)C(=O)NCCC(=O)O` (single isomer, unassigned) gave a negative logarithm of the IC50 (pIC50) on Endothelin-1 receptor [2] of 6.64. At Endothelin-1 receptor [3], the IC50 max was 0.15 µM. In turn, `CC(C)C[C@H](NC(=O)N1CCc2ccccc2C1)C(=O)NC(Cc1c[nH]c2ccccc12)C(=O)NCCC(=O)O` (single isomer, unassigned) came in with an IC50 max at Endothelin-1 receptor [3] of 0.53 µM. At Endothelin-1 receptor [3], `CC(C)C[C@H](NC(=O)N1CCCCCC1)C(=O)NC(Cc1c[nH]c2ccccc12)C(=O)NCCC(=O)O` (single isomer, unassigned) displayed an IC50 max of 0.061 µM. On Endothelin-1 receptor [4], the Kb was 60.3 nM. `CC(C)C[C@H](NC(=O)NC12CC3CC(CC(C3)C1)C2)C(=O)NC(Cc1c[nH]c2ccccc12)C(=O)NCCC(=O)O` (single isomer, unassigned) came in with an IC50 max at Endothelin-1 receptor [3] of 0.33 µM.

Turning to `CC(C)C[C@H](NC(=O)Nc1cccc(Cl)c1)C(=O)NC(Cc1c[nH]c2ccccc12)C(=O)NCCC(=O)O` (single isomer, unassigned), the pIC50 at Endothelin-1 receptor [2] is 5.68. Consider `CC(C)C[C@H](NC(=O)N(C(C)C)C(C)C)C(=O)NC(Cc1c[nH]c2ccccc12)C(=O)NCCC(=O)O` (single isomer, unassigned), for which, at Endothelin-1 receptor [3], the IC50 max is 0.057 µM. The same measure, in the same setting: as for `CC(C)C[C@H](NC(=O)NCC(C)(C)C)C(=O)NC(Cc1c[nH]c2ccccc12)C(=O)NCCC(=O)O` (single isomer, unassigned), the figure is 0.56 µM. `CC(C)C[C@H](NC(=O)N1C(C)(C)CCCC1(C)C)C(=O)NC(Cc1c[nH]c2ccccc12)C(=O)NCCC(=O)O` (single isomer, unassigned) displayed an IC50 max on Endothelin-1 receptor [3] of 0.19 µM.
